# Test system: cows
# Assay: Abomasal infusion of glycerol in early lactation cows, milk component concentrations (Example 4)
# Format: in vivo, cow
# Conditions: for Fat / Lactose / Total Solids / True Protein: 150 g/cow/day abomasal, average of 3 cows, early lactation
# Method: To determine the weight percent total solids, wet basis, in a sample, the actual weight of total solids is determined by analyzing the sample in accordance with Method #925.23 (33.2.09) of Official Methods of Analysis, Association of Official Analytical Chemists (AOAC) (16th Ed., 1995). The weight percent total solids, wet basis, is then calculated by dividing the actual weight of total solids by the actual weight of the sample. The weight percent of true protein, wet basis, for a particular sample is calculated after first determining the wet basis weight percent of total Kjeldahl nitrogen and the wet basis weight percent of non-protein nitrogen in the sample. The wet basis weight percent of total Kjeldahl nitrogen in the sample is determined using the method referenced above. The wet basis weight percent of non-protein nitrogen (NPN) in the sample is determined in accordance with Method #991.21 (33.2.12) of Official Methods of Analysis, Association of Official Analytical Chemists (AOAC) (16th Ed., 1995). The weight percent of true protein, wet basis, in the sample is then determined by subtracting the wet basis weight percent of non-protein nitrogen in the sample from the wet basis weight percent of total Kjeldahl nitrogen in the sample. To determine the weight percent lactose, wet basis, in a liquid sample, the weight of the liquid sample is first determined. The actual weight of lactose in the liquid sample may then be determined using analysis kit number 176-303, that is available from Boehringer-Mannheim of Indianapolis, Ind. in accordance with the procedural instructions included with analysis kit number 176-303. The weight percent lactose, wet basis, in the liquid sample is then calculated by dividing the actual weight of lactose in the liquid sample by the actual weight of the liquid sample. To determine the weight percent fat, wet basis, in a sample, the actual weight of fat in the sample is determined in accordance with Method #974.09 (33.7.18) of Official Methods of Analysis, Association of Official Analytical Chemists (AOAC) (16th Ed., 1995). The weight percent fat, wet basis, is then calculated by dividing the actual weight of fat in the sample by the actual weight of the sample. In this example, glycerol was abomasally infused into three different cows at a rate of 150 grams per cow per day during a 14 day test period. The rations provided to the cows during the period extending from day 0, prior to abomasal infusion of glycerol, through day 14 of the test period were the same. The only difference in feeding of the cows between day 0 and days 1-14 of the test period were that during days 1-14 the cows were abomasally infused with the dosage of 150 grams of glycerol per cow per day. The glycerol was not combined with any other materials prior to being abomasally infused into the cattle. Milk from the three cows was collected and analyzed prior to infusion (on day 0) and also was collected and analyzed on the third, seventh and fourteenth day of the test period. The results presented in Table 4 below for each milk component for each particular day are averages for the milk collected from the three different cows. The net change for the different milk components presented in Table 4 was calculated by averaging the results of days 3, 7 and 14 for a particular milk component and subtracting the results presented for day 0 for the particular milk component. […] This increase in true protein concentration is particularly significant considering that the test cattle were in the early lactation phase (less than 90 days into milk production) when abomasally infused with glycerol. Typically, when being fed ordinary rations, the concentration of true protein in milk produced by lactating cattle decreases as the early lactation phase progresses.
# [1] = abomasal infusion, early lactation phase
# [2] = milk, average of days 3, 7, 14 minus day 0
compound,measurement,setting,value
OCC(O)CO [glycerol],weight percent of fat in the milk (conclusion in words),[1],substantially stabilized
same,weight percent of total solids in the milk (conclusion in words),[1],substantially stabilized
same,weight percent of true protein in the milk (conclusion in words),[1],net increase
same,Fat,"milk, Day 3",3.80 Wt %
same,Lactose,"milk, Day 3",4.78 Wt. %
same,Total Solids,"milk, Day 3",12.67 Wt. %
same,True Protein,"milk, Day 3",3.33 Wt. %
same,Fat,"milk, Day 7",3.53 Wt %
same,Lactose,"milk, Day 7",4.41 Wt. %
same,Total Solids,"milk, Day 7",12.04 Wt. %
same,True Protein,"milk, Day 7",3.32 Wt. %
same,Fat,"milk, Day 14",3.68 Wt %
same,Lactose,"milk, Day 14",4.51 Wt. %
same,Total Solids,"milk, Day 14",12.34 Wt. %
same,True Protein,"milk, Day 14",3.38 Wt. %
same,"Fat, Net Change",[2],−0.11 Wt %
same,"Lactose, Net Change",[2],−0.07 Wt. %
same,"Total Solids, Net Change",[2],−0.05 Wt. %
same,"True Protein, Net Change",[2],+0.11 Wt. %
same,decrease in the weight percent of lactose,"milk, net change over test period",0.07%

# From US6866861B1, “Method and composition for enhancing milk component concentrations” (Land O'Lakes, Inc., priority 1999, dated 2005)
